# Assay results reported in patent publication US11084800B2 (Achillion Pharmaceuticals, Inc., priority 2017, dated 2021).
# Target: Human Factor D (Homo sapiens (Human), UniProt P00746)
# Test: Human Factor D Assay
# Assay type: biochemical
# Conditions: Factor D inhibition, assay of Example 10; read-out: IC5 (Stars)
# Outline: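 Thioester substrate Z-L-Lys-SBz (100 μM) with Ellman's reagent DTNB (100 μM) reports activity of 80 nM human serum-derived enzyme, kinetically at 405 nm over 30 min. Compound preincubated 5 min, room temperature, pH 7.5 Tris/1 M NaCl; IC50 by nonlinear fit of rates.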
# Sequence of Human Factor D (P00746 26-253): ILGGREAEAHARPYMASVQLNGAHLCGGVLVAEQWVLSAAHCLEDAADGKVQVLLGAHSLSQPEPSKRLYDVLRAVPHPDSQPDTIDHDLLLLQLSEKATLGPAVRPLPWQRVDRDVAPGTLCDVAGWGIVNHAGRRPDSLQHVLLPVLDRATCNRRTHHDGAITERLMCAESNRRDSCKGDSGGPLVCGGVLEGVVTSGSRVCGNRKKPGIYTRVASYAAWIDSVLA
row,Compound,IC50 [nM]
1,"CC(=O)c1nn(CC(=O)N2[C@H](C(=O)Nc3nc(Br)ccc3C)C[C@@]3(C)C[C@@H]23)c2cc(F)c(-c3cnc(C)nc3)cc12 [Compound 466, (1R,3S,5R)-2-(2-(3-acetyl-6-fluoro-5-(2-methylpyrimidin-5-yl)-1H-indazol-1-yl)acetyl)-N-(6-bromo-3-methylpyridin-2-yl)-5-methyl-2-azabicyclo[3.1.0]hexane-3-carboxamide]",< 1000
2,"COC(=O)c1nn(CC(=O)N2[C@H](C(=O)Nc3nc(Br)ccc3C)C[C@@]3(C)C[C@@H]23)c2ccc(-c3cnc(C)nc3)cc12 [Compound 467, Methyl 1-{2-[(1R,3S,5R)-3-[(6-bromo-3-methylpyridin-2-yl)carbamoyl]-5-methyl-2-azabicyclo[3.1.0]hexan-2-yl]-2-oxoethyl}-5-(2-methylpyrimidin-5-yl)indazole-3-carboxylate]",< 1000
3,"Cc1ncc(-c2ccc3c(c2)c(C(=O)O)nn3CC(=O)N2[C@H](C(=O)Nc3nc(Br)ccc3C)C[C@@]3(C)C[C@@H]23)cn1 [Compound 469, 1-{2-[(1R,3S,5R)-3-[(6-Bromo-3-methylpyridin-2-yl)carbamoyl]-5-methyl-2-azabicyclo[3.1.0]hexan-2-yl]-2-oxoethyl}-5-(2-methylpyrimidin-5-yl)indazole-3-carboxylic Acid]",> 10000
4,"Cc1ncc(-c2cc3c(C(=O)C(F)(F)F)cn(CC(=O)N4[C@H](C(=O)Nc5nc(Br)ccc5C)C[C@@]5(C)C[C@@H]45)c3cn2)cn1 [Compound 470, (1R,3S,5R)-N-(6-bromo-3-methylpyridin-2-yl)-5-methyl-2-(2-(5-(2-methylpyrimidin-5-yl)-3-(2,2,2-trifluoroacetyl)-1H-pyrrolo[2,3-c]pyridin-1-yl)acetyl)-2-azabicyclo[3.1.0]hexane-3-carboxamide]",< 1000
5,CC(=O)c1cn(CC(=O)N2[C@H](C(=O)Nc3nc(Br)c(F)cc3C)C[C@@]3(C)C[C@@H]23)c2c(C)nc(-c3cnc(C)nc3)cc12 [Compound 471],< 1000
6,"CC(=O)c1cn(CC(=O)N2[C@H](C(=O)Nc3nc(Br)ccc3C)C[C@@]3(C)C[C@@H]23)c2c(C)nc(-c3cnc(C)nc3)cc12 [Compound 472, (1R,3S,5R)-2-(2-(3-Acetyl-7-methyl-5-(2-methylpyrimidin-5-yl)-1H-pyrrolo[2,3-c]pyridin-1-yl)acetyl)-N-(6-bromo-3-methylpyridin-2-yl)-5-methyl-2-azabicyclo[3.1.0]hexane-3-carboxamide]",< 1000
7,"CCNC(=O)c1nn(CC(=O)N2[C@H](C(=O)Nc3nc(Br)ccc3C)C[C@@]3(C)C[C@@H]23)c2ccc(-c3cnc(C)nc3)cc12 [Compound 474, 1-{2-[(1R,3S,5R)-3-[(6-Bromo-3-methylpyridin-2-yl)carbamoyl]-5-methyl-2-azabicyclo[3.1.0]hexan-2-yl]-2-oxoethyl}-N-ethyl-5-(2-methylpyrimidin-5-yl)indazole-3-carboxamide]",< 1000
8,"CC(=O)c1cn(CC(=O)N2[C@H](C(=O)Nc3nc(Br)ccc3C)C[C@@]3(C)C[C@@H]23)c2cc(F)c(-c3cnc(C)nc3)cc12 [Compound 482, (1R,3S,5R)-2-(2-(3-acetyl-6-fluoro-5-(2-methylpyrimidin-5-yl)-1H-indol-1-yl)acetyl)-N-(6-bromo-3-methylpyridin-2-yl)-5-methyl-2-azabicyclo[3.1.0]hexane-3-carboxamide]",< 1000
9,"CC(=O)c1c(C)n(CC(=O)N2[C@H](C(=O)Nc3nc(Br)ccc3C)C[C@@]3(C)C[C@@H]23)c2ccc(-c3cnc(C)nc3)cc12 [Compound 483, (1R,3S,5R)-2-(2-(3-acetyl-2-methyl-5-(2-methylpyrimidin-5-yl)-1H-indol-1-yl)acetyl)-N-(6-bromo-3-methylpyridin-2-yl)-5-methyl-2-azabicyclo[3.1.0]hexane-3-carboxamide]",< 1000
10,"CC(=O)c1nn(CC(=O)N2[C@H](C(=O)Nc3nc(Br)c(F)cc3C)C[C@@]3(Cc4nnc(C)o4)C[C@@H]23)c2c(C)cc(-c3cnc(C)nc3)cc12 [Compound 484, (1R,3S,5R)-2-(2-(3-acetyl-7-methyl-5-(2-methylpyrimidin-5-yl)-1H-indazol-1-yl)acetyl)-N-(6-bromo-5-fluoro-3-methylpyridin-2-yl)-5-((5-methyl-1,3,4-oxadiazol-2-yl)methyl)-2-azabicyclo[3.1.0]hexane-3-carboxamide]",< 1000
11,"CC(=O)c1nn(CC(=O)N2[C@H](C(=O)Nc3nc(Br)c(F)cc3C)C[C@@]3(Cc4nnc(C)o4)C[C@@H]23)c2c(C)nc(-c3cnc(C)nc3)cc12 [Compound 485, (1R,3S,5R)-2-(2-(3-acetyl-7-methyl-5-(2-methylpyrimidin-5-yl)-1H-pyrazolo[3,4-c]pyridin-1-yl)acetyl)-N-(6-bromo-5-fluoro-3-methylpyridin-2-yl)-5-((5-methyl-1,3,4-oxadiazol-2-yl)methyl)-2-azabicyclo[3.1.0]hexane-3-carboxamide]",< 1000
12,"CC(=O)c1nn(CC(=O)N2[C@H](C(=O)Nc3nc(Br)ccc3Cl)C[C@@]3(Cc4nnc(C)o4)C[C@@H]23)c2c(C)cc(-c3cnc(C)nc3)cc12 [Compound 486, (1R,3S,5R)-2-(2-(3-acetyl-7-methyl-5-(2-methylpyrimidin-5-yl)-1H-indazol-1-yl)acetyl)-N-(6-bromo-3-chloropyridin-2-yl)-5-((5-methyl-1,3,4-oxadiazol-2-yl)methyl)-2-azabicyclo[3.1.0]hexane-3-carboxamide]",< 1000
13,"CCCNC(=O)c1nn(CC(=O)N2[C@H](C(=O)NCCC)C[C@@]3(C)C[C@@H]23)c2ccc(-c3cnc(C)nc3)cc12 [Compound 487, 1-(2-((1R,3S,5R)-5-methyl-3-(propylcarbamoyl)-2-azabicyclo[3.1.0]hexan-2-yl)-2-oxoethyl)-5-(2-methylpyrimidin-5-yl)-N-propyl-1H-indazole-3-carboxamide]",1000 to 10000
14,"CCCCNC(=O)[C@@H]1C[C@@]2(C)C[C@H]2N1C(=O)Cn1nc(C(C)=O)c2cc(-c3cnc(C)nc3)ccc21 [Compound 488, (1R,3S,5R)-2-(2-(3-acetyl-5-(2-methylpyrimidin-5-yl)-1H-indazol-1-yl)acetyl)-N-butyl-5-methyl-2-azabicyclo[3.1.0]hexane-3-carboxamide]",< 1000
15,"CC(=O)c1nn(CC(=O)N2[C@H](C(=O)Nc3cc(C)cc(Br)n3)C[C@@]3(C)C[C@@H]23)c2ccc(-c3cnc(C)nc3)cc12 [Compound 492, (1R,3S,5R)-2-(2-(3-acetyl-5-(2-methylpyrimidin-5-yl)-1H-indazol-1-yl)acetyl)-N-(6-bromo-4-methylpyridin-2-yl)-5-methyl-2-azabicyclo[3.1.0]hexane-3-carboxamide]",< 1000

# Same assay, conditions: Table 8; Factor D 80 nM, substrate Z-L-Lys-SBz; read-out: IC50
row,Compound,IC50 [nM]
1,CCCNC(=O)c1nn(CC(=O)N2[C@H](C(=O)Nc3nc(Br)ccc3C)C[C@@]3(C)C[C@@H]23)c2ccc(-c3cnc(C)nc3)cc12 [Compound 475],< 1000
2,CCCCNC(=O)c1nn(CC(=O)N2[C@H](C(=O)Nc3nc(Br)ccc3C)C[C@@]3(C)C[C@@H]23)c2ccc(-c3cnc(C)nc3)cc12 [Compound 476],< 1000
3,"CCCCCNC(=O)c1nn(CC(=O)N2[C@H](C(=O)Nc3nc(Br)ccc3C)C[C@@]3(C)C[C@@H]23)c2ccc(-c3cnc(C)nc3)cc12 [Compound 477, 1-(2-((1R,3S,5R)-3-((6-bromo-3-methylpyridin-2-yl)carbamoyl)-5-methyl-2-azabicyclo[3.1.0]hexan-2-yl)-2-oxoethyl)-5-(2-methylpyrimidin-5-yl)-N-pentyl-1H-indazole-3-carboxamide]",> 10000
4,"Cc1ncc(-c2ccc3c(c2)c(C(=O)NCC2CC2)nn3CC(=O)N2[C@H](C(=O)Nc3nc(Br)ccc3C)C[C@@]3(C)C[C@@H]23)cn1 [Compound 478, 1-(2-((1R,3S,5R)-3-((6-bromo-3-methylpyridin-2-yl)carbamoyl)-5-methyl-2-azabicyclo[3.1.0]hexan-2-yl)-2-oxoethyl)-N-(cyclopropylmethyl)-5-(2-methylpyrimidin-5-yl)-1H-indazole-3-carboxamide]",< 1000
5,Cc1ncc(-c2ccc3c(c2)c(C(=O)NCC2CCC2)nn3CC(=O)N2[C@H](C(=O)Nc3nc(Br)ccc3C)C[C@@]3(C)C[C@@H]23)cn1 [Compound 479],1000 to 10000
6,Cc1ncc(-c2ccc3c(c2)c(C(=O)NCC(C)(C)C)nn3CC(=O)N2[C@H](C(=O)Nc3nc(Br)ccc3C)C[C@@]3(C)C[C@@H]23)cn1 [Compound 480],> 10000
7,"Cc1ncc(-c2ccc3c(c2)c(C(=O)NCCN)nn3CC(=O)N2[C@H](C(=O)Nc3nc(Br)ccc3C)C[C@@]3(C)C[C@@H]23)cn1 [Compound 489, N-(2-aminoethyl)-1-(2-((1R,3S,5R)-3-((6-bromo-3-methylpyridin-2-yl)carbamoyl)-5-methyl-2-azabicyclo[3.1.0]hexan-2-yl)-2-oxoethyl)-5-(2-methylpyrimidin-5-yl)-1H-indazole-3-carboxamide]",1000 to 10000
8,"CNCCNC(=O)c1nn(CC(=O)N2[C@H](C(=O)Nc3nc(Br)ccc3C)C[C@@]3(C)C[C@@H]23)c2ccc(-c3cnc(C)nc3)cc12 [Compound 490, 1-(2-((1R,3S,5R)-3-((6-bromo-3-methylpyridin-2-yl)carbamoyl)-5-methyl-2-azabicyclo[3.1.0]hexan-2-yl)-2-oxoethyl)-N-(2-(methylamino)ethyl)-5-(2-methylpyrimidin-5-yl)-1H-indazole-3-carboxamide]",1000 to 10000
9,"Cc1ncc(-c2ccc3c(c2)c(C(=O)NCCN(C)C)nn3CC(=O)N2[C@H](C(=O)Nc3nc(Br)ccc3C)C[C@@]3(C)C[C@@H]23)cn1 [Compound 491, 1-(2-((1R,3S,5R)-3-((6-bromo-3-methylpyridin-2-yl)carbamoyl)-5-methyl-2-azabicyclo[3.1.0]hexan-2-yl)-2-oxoethyl)-N-(2-(dimethylamino)ethyl)-5-(2-methylpyrimidin-5-yl)-1H-indazole-3-carboxamide]",> 10000
